Laboratory results: ChEMBL document CHEMBL4321812, “Structure-based rational design of staurosporine-based fluorescent probe with broad-ranging kinase affinity for kinase panel application” (Bioorg Med Chem Lett, 2019)

Key:
[1] = molecular target: Serine/threonine-protein kinase ULK3 (Homo sapiens, UniProt Q6PHR2); assay: Binding affinity to recombinant full-length N-terminal His-FLAG-GST-tagged ULK3 (unknown origin) expressed in baculovirus infected Sf9 insect cells incubated for 1 hr by TR-FRET assay
[2] = molecular target: Homeodomain-interacting protein kinase 4 (Homo sapiens, UniProt Q8NE63); assay: Binding affinity to recombinant full-length N-terminal His-FLAG-tagged HIPK4 (unknown origin) expressed in baculovirus infected Sf9 insect cells incubated for 1 hr by TR-FRET assay
[3] = molecular target: Mitogen-activated protein kinase kinase kinase 5 (Homo sapiens, UniProt Q99683); assay: Binding affinity to recombinant full-length N-terminal His-FLAG-GST-tagged MAP3K5 (unknown origin) (654 to 971 residues) expressed in baculovirus infected Sf9 insect cells incubated for 1 hr by TR-FRET assay
[4] = molecular target: Serine/threonine-protein kinase ULK1 (Homo sapiens, UniProt O75385); assay: Binding affinity to recombinant N-terminal His-FLAG-GST-tagged ULK1 (unknown origin) (1 to 649 residues) expressed in baculovirus infected Sf9 insect cells incubated for 1 hr by TR-FRET assay
[5] = molecular target: Death-associated protein kinase 3 (Homo sapiens, UniProt O43293); assay: Binding affinity to recombinant full-length N-terminal His-FLAG-GST-tagged DAPK3 (unknown origin) expressed in baculovirus infected Sf9 insect cells incubated for 1 hr by TR-FRET assay
Chain of Death-associated protein kinase 3 (O43293 whole entry): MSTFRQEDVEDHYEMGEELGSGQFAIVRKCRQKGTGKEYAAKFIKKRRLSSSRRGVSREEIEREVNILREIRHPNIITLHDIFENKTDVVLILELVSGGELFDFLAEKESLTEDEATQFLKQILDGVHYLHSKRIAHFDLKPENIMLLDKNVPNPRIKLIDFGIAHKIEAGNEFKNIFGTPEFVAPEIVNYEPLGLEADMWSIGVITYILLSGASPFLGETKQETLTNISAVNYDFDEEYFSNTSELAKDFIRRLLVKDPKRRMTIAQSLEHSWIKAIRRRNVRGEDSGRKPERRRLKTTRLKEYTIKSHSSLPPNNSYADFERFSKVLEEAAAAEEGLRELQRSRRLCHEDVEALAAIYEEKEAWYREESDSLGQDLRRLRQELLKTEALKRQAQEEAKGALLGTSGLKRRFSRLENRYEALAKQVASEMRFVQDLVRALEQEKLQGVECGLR

[6] = molecular target: NUAK family SNF1-like kinase 1 (Homo sapiens, UniProt O60285); assay: Binding affinity to recombinant full-length N-terminal His-FLAG-GST-tagged NUAK1 (unknown origin) expressed in baculovirus infected Sf9 insect cells incubated for 1 hr by TR-FRET assay
Chain of NUAK family SNF1-like kinase 1 (O60285 whole entry): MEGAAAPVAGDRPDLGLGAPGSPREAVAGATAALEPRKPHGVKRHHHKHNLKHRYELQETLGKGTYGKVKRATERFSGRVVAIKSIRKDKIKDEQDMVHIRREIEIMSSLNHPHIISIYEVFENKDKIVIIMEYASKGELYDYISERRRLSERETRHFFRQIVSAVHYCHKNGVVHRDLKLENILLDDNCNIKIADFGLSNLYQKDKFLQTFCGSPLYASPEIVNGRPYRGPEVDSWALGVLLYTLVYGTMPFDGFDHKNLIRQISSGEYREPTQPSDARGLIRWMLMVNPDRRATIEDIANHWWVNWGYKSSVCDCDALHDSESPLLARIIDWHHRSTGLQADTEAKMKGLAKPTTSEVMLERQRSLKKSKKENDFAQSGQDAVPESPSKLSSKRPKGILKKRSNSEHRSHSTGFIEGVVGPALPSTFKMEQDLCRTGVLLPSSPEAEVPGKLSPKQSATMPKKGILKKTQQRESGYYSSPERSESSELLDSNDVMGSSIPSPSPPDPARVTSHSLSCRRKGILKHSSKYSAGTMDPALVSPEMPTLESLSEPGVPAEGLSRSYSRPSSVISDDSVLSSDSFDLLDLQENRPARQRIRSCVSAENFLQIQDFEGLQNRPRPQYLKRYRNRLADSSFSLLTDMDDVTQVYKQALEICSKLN

[7] = molecular target: Tyrosine-protein kinase Lck (Homo sapiens, UniProt P06239); assay: Binding affinity to recombinant human full length N-terminal GST-tagged LCK expressed in baculovirus expression system using srctide as substrate incubated for 1 hr by TR-FRET assay
[8] = molecular target: Protein kinase C beta type (Homo sapiens, UniProt P05771); assay: Binding affinity to recombinant full-length N-terminal His-FLAG-tagged PRKCB (unknown origin) expressed in baculovirus infected Sf9 insect cells incubated for 1 hr by TR-FRET assay
[9] = molecular target: Serine/threonine-protein kinase PAK 6 (Homo sapiens, UniProt Q9NQU5); assay: Binding affinity to recombinant human full-length N-terminal GST-tagged PAK6 expressed in baculovirus expression system using SGKtide as substrate incubated for 1 hr by TR-FRET assay
Chain of Serine/threonine-protein kinase PAK 6 (Q9NQU5 whole entry, the tested form may be a part): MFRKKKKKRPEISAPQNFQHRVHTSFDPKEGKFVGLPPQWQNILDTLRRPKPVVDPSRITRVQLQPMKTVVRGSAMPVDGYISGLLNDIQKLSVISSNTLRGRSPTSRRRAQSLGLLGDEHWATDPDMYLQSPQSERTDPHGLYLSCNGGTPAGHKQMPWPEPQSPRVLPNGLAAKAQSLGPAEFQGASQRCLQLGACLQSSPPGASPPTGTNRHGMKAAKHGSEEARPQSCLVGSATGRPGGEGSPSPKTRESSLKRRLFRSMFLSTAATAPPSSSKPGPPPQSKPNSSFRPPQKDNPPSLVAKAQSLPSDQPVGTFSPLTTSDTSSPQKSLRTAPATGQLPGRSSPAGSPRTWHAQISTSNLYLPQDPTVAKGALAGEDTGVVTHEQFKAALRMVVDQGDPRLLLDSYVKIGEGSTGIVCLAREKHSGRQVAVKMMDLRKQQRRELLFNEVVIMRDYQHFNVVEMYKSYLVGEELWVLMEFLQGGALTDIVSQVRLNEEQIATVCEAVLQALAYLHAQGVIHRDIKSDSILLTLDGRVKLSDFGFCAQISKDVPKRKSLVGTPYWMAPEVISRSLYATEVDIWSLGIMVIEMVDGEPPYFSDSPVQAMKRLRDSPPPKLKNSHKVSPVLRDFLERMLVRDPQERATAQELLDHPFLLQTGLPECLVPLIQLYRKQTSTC

TGF-beta receptor type-2 = TGF-beta receptor type-2 (Homo sapiens, UniProt P37173); assay: Binding affinity to recombinant N-terminal His-FLAG-GST-tagged TGFBR2 (unknown origin) (194 to 567 residues) expressed in baculovirus infected Sf9 insect cells incubated for 1 hr by TR-FRET assay
Chain of TGF-beta receptor type-2 (P37173 whole entry, the tested form may be a part): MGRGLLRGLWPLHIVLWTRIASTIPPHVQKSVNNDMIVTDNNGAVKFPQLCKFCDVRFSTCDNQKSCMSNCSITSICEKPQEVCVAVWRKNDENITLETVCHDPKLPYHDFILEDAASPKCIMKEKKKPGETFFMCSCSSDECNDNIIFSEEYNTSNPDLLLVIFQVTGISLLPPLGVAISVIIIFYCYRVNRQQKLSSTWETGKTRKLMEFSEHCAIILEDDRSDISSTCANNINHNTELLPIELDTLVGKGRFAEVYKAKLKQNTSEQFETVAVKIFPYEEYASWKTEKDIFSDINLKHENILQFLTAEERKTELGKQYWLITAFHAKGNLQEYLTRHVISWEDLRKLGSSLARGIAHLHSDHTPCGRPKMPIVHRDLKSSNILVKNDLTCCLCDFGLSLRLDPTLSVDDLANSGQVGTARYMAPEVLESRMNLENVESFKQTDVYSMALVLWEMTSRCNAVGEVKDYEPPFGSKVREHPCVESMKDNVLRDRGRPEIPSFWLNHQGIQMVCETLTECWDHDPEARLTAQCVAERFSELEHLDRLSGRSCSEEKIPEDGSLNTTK

[10] = molecular target: Protein kinase C zeta type (Homo sapiens, UniProt Q05513); assay: Binding affinity to recombinant full-length N-terminal His-FLAG-GST-tagged PRKCZ (unknown origin) expressed in baculovirus infected Sf9 insect cells incubated for 1 hr by TR-FRET assay
Insulin receptor = Insulin receptor (Homo sapiens, UniProt P06213); assay: Binding affinity to recombinant full-length N-terminal His-FLAG-GST-tagged INSR (unknown origin) (1005 to 1310 residues) expressed in baculovirus infected Sf9 insect cells incubated for 1 hr by TR-FRET assay
[11] = molecular target: Calcium/calmodulin-dependent protein kinase type II subunit delta (Homo sapiens, UniProt Q13557); assay: Binding affinity to recombinant human full-length N-terminal GST-tagged CAMK2D expressed in baculovirus expression system using GS peptide as substrate incubated for 1 hr by TR-FRET assay
[12] = molecular target: Dual specificity mitogen-activated protein kinase kinase 6 (Homo sapiens, UniProt P52564); assay: Binding affinity to recombinant human full length N-terminal GST-tagged MAP2K6 expressed in baculovirus expression system using p38alpha (9 to 352 residues) as substrate incubated for 1 hr by TR-FRET assay
[13] = molecular target: TRAF2 and NCK-interacting protein kinase (Homo sapiens, UniProt Q9UKE5); assay: Binding affinity to recombinant full-length N-terminal His-FLAG-GST-tagged TNIK (unknown origin) (1 to 314 residues) expressed in baculovirus infected Sf9 insect cells incubated for 1 hr by TR-FRET assay
[14] = molecular target: STE20-like serine/threonine-protein kinase (Homo sapiens, UniProt Q9H2G2); assay: Binding affinity to recombinant N-terminal His-FLAG-GST-tagged SLK (unknown origin) (1 to 1152 residues) expressed in baculovirus infected Sf9 insect cells incubated for 1 hr by TR-FRET assay
Chain of STE20-like serine/threonine-protein kinase (Q9H2G2 whole entry, the tested form may be a part): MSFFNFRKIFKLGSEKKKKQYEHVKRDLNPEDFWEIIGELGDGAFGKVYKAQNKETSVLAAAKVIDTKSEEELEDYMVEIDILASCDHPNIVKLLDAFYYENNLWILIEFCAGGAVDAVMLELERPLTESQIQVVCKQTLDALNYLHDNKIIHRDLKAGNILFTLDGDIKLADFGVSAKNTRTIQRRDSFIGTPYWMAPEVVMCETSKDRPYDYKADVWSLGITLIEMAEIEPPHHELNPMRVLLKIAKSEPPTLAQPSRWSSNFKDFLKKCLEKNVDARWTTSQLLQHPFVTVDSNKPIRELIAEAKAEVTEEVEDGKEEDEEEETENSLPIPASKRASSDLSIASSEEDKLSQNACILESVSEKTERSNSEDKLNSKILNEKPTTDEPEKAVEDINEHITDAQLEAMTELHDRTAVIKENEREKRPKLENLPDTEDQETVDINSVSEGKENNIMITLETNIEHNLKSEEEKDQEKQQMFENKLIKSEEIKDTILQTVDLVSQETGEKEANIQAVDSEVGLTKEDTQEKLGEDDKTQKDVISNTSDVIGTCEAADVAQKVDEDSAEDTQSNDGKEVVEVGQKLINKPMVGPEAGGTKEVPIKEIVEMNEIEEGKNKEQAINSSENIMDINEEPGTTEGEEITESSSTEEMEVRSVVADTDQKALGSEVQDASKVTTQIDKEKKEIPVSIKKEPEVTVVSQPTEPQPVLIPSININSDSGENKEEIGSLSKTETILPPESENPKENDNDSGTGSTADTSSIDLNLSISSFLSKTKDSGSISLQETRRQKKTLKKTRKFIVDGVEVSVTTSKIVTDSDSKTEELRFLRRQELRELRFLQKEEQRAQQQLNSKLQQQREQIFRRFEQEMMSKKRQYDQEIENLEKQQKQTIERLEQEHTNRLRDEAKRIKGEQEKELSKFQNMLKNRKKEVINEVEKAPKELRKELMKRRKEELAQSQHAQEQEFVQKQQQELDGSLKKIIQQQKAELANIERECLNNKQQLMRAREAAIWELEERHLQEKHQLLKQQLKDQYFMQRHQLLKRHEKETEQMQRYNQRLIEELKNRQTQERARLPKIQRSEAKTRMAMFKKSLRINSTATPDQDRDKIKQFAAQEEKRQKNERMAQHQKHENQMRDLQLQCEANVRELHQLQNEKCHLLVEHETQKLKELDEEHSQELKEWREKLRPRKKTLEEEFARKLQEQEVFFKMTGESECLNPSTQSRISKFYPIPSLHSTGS

[15] = molecular target: Tyrosine-protein kinase receptor UFO (Homo sapiens, UniProt P30530); assay: Binding affinity to recombinant full-length N-terminal His-FLAG-GST-tagged AXL (unknown origin) expressed in baculovirus infected Sf9 insect cells incubated for 1 hr by TR-FRET assay
[16] = molecular target: Serine/threonine-protein kinase 17A (Homo sapiens, UniProt Q9UEE5); assay: Binding affinity to recombinant full length N-terminal His-FLAG-GST-tagged STK17A (unknown origin) expressed in baculovirus infected Sf9 insect cells incubated for 1 hr by TR-FRET assay
Chain of Serine/threonine-protein kinase 17A (Q9UEE5 whole entry): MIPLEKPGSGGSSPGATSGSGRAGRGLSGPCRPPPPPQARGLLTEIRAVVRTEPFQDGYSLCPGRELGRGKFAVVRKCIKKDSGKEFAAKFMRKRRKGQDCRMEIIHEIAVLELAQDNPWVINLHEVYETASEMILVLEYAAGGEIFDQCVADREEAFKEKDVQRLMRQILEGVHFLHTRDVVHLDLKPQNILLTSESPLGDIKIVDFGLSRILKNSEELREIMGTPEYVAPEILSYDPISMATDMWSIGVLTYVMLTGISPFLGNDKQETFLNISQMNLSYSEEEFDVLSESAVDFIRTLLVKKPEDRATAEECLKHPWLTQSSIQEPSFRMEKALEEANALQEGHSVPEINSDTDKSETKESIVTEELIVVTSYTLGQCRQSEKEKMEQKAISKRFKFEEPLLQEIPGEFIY

[17] = molecular target: Protein kinase C alpha type (Homo sapiens, UniProt P17252); assay: Binding affinity to recombinant full-length N-terminal His-FLAG-GST-tagged PRKCA (unknown origin) expressed in baculovirus infected Sf9 insect cells incubated for 1 hr by TR-FRET assay
[18] = molecular target: Rho-associated protein kinase 2 (Homo sapiens, UniProt O75116); assay: Binding affinity to recombinant full-length N-terminal His-FLAG-GST-tagged ROCK2 (unknown origin) (1 to 553 residues) expressed in baculovirus infected Sf9 insect cells incubated for 1 hr by TR-FRET assay
[19] = molecular target: Serine/threonine-protein kinase 32C (Homo sapiens, UniProt Q86UX6); assay: Binding affinity to recombinant full-length N-terminal His-FLAG-GST-tagged STK32C (unknown origin) (66 to 486 residues) expressed in baculovirus infected Sf9 insect cells incubated for 1 hr by TR-FRET assay
Activated CDC42 kinase 1 = Activated CDC42 kinase 1 (Homo sapiens, UniProt Q07912); assay: Binding affinity to recombinant N-terminal His-FLAG-GST-tagged TNK2 (unknown origin) (110 to 476 residues) expressed in baculovirus infected Sf9 insect cells incubated for 1 hr by TR-FRET assay
[20] = molecular target: Serine/threonine-protein kinase pim-1 (Homo sapiens, UniProt P11309); assay: Binding affinity to recombinant human full-length N-terminal his-tagged PIM1 expressed in baculovirus expression system using S6K2 peptide as substrate incubated for 1 hr by TR-FRET assay
Chain of Serine/threonine-protein kinase pim-1 (P11309 whole entry, canonical isoform): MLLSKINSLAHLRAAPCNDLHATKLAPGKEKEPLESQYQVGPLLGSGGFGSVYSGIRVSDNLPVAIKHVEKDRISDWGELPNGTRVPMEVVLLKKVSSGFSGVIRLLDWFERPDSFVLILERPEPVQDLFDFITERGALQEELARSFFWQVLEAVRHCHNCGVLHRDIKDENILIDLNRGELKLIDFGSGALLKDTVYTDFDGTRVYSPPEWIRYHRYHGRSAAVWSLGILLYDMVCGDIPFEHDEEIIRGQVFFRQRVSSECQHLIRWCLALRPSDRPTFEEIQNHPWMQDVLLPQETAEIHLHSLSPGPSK

[21] = molecular target: Phosphorylase b kinase gamma catalytic chain, liver/testis isoform (Homo sapiens, UniProt P15735); assay: Binding affinity to recombinant full-length N-terminal His-FLAG-GST-tagged PHKG2 (unknown origin) expressed in baculovirus infected Sf9 insect cells incubated for 1 hr by TR-FRET assay
Chain of Phosphorylase b kinase gamma catalytic chain, liver/testis isoform (P15735 whole entry, canonical isoform): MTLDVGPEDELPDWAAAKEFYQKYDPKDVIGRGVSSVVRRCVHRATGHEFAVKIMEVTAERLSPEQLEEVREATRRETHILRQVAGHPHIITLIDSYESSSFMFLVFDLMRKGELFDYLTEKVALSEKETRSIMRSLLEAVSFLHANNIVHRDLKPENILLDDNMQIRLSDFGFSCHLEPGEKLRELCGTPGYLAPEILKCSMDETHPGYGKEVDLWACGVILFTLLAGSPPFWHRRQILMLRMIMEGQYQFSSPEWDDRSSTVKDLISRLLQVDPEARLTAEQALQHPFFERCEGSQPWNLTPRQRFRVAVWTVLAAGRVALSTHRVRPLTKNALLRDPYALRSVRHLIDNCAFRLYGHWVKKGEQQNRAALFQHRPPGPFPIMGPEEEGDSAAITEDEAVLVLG

CO[C@@H]1[C@H](NCCOCCOCCOCCNC(=O)CCC2=[N+]3C(=Cc4c(C)cc(C)n4[B-]3(F)F)C=C2)C[C@H]2O[C@]1(C)n1c3ccccc3c3c4c(c5c6ccccc6n2c5c31)C(=O)NC4
Kd [1]: 16 nM | Kd [2]: 424 nM | Kd [3]: 136 nM | Kd [4]: 135 nM | Kd [5]: 41 nM | Kd [6]: 15 nM | Kd [7]: 94 nM | Kd [8]: 65 nM | Kd [9]: 22 nM | Kd (TGF-beta receptor type-2): 854 nM | Kd [10]: 1250 nM | Kd (Insulin receptor): 1860 nM | Kd [11]: 4 nM | Kd [12]: 28 nM | Kd [13]: 121 nM | Kd [14]: 5 nM | Kd [15]: 313 nM | Kd [16]: 258 nM | Kd [17]: 92 nM | Kd [18]: 23 nM | Kd [19]: 448 nM | Kd (Activated CDC42 kinase 1): 36 nM | Kd [20]: 207 nM | Kd [21]: 71 nM

CO[C@@H]1[C@H](N(C)CCOCCOCCOCCNC(=O)CCC2=[N+]3C(=Cc4c(C)cc(C)n4[B-]3(F)F)C=C2)C[C@H]2O[C@]1(C)n1c3ccccc3c3c4c(c5c6ccccc6n2c5c31)C(=O)NC4
Kd [1]: 14 nM | Kd [2]: 472 nM | Kd [3]: 248 nM | Kd [4]: 311 nM | Kd [5]: 25 nM | Kd [6]: 13 nM | Kd [7]: 92 nM | Kd [8]: 17 nM | Kd [9]: 25 nM | Kd (TGF-beta receptor type-2): > 2000 nM | Kd [10]: 1350 nM | Kd (Insulin receptor): 1690 nM | Kd [11]: 6 nM | Kd [12]: 16 nM | Kd [13]: 97 nM | Kd [14]: 6 nM | Kd [15]: 559 nM | Kd [16]: 367 nM | Kd [17]: 43 nM | Kd [18]: 16 nM | Kd [19]: 326 nM | Kd (Activated CDC42 kinase 1): 42 nM | Kd [20]: 285 nM | Kd [21]: 72 nM
